The Ki is a dissociation constant, usually derived from enzyme kinetics or from competition with a known ligand. The low end stands for higher affinity, the high end for lower affinity.

Where “and” joins values, the source holds several entries; their conditions need not be identical. Equal values may be shown once.

Assay [1] deals with T1, VIP peptides (Homo sapiens, UniProt P01282).
T1 sequence (P01282 whole entry): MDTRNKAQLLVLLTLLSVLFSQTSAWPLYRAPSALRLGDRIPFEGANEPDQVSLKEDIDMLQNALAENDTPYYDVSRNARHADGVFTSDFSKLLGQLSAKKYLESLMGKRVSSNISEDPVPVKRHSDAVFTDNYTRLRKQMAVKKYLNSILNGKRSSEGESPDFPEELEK

For assay [2], the target named is T2, VIP peptides (Cavia porcellus, UniProt P04566).
T2 sequence (P04566 whole entry): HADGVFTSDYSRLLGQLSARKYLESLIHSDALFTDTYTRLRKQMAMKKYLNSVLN

Regarding `CC[C@H](C)[C@H](NC(=O)[C@H](CO)NC(=O)[C@H](CC(N)=O)NC(=O)[C@H](CC(C)C)NC(=O)[C@H](Cc1ccc(O)cc1)NC(=O)[C@H](CCCCN)NC(=O)[C@H](CCCCN)NC(=O)[C@@H](NC(=O)[C@H](C)NC(=O)[C@H](CCSC)NC(=O)[C@H](CCC(N)=O)NC(=O)[C@H](CCCCN)NC(=O)[C@H](CCCN=C(N)N)NC(=O)[C@H](CC(C)C)NC(=O)[C@H](CCCN=C(N)N)NC(=O)[C@@H](NC(=O)[C@H](Cc1ccc(O)cc1)NC(=O)[C@H](CC(N)=O)NC(=O)[C@H](CC(=O)O)NC(=O)[C@@H](NC(=O)[C@H](Cc1ccccc1)NC(=O)[C@@H](NC(=O)[C@H](C)NC(=O)[C@H](CC(=O)O)NC(=O)[C@H](CO)NC(=O)[C@@H](N)Cc1cnc[nH]1)C(C)C)[C@@H](C)O)[C@@H](C)O)C(C)C)C(=O)N[C@@H](CC(C)C)C(=O)N[C@@H](CC(N)=O)C(=O)O` [CAS_37221-79-7], the Ki in assay [1] was 0.0017 µM and 0.0016 µM; in assay [2] it was 0.0025 µM. In the case of `CC[C@H](C)[C@H](NC(=O)[C@H](CO)NC(=O)[C@H](CC(N)=O)NC(=O)[C@H](CC(C)C)NC(=O)[C@H](Cc1ccc(O)cc1)NC(=O)[C@H](CCCCN)NC(=O)[C@H](CCCCN)NC(=O)[C@@H](NC(=O)[C@H](C)NC(=O)[C@H](CCSC)NC(=O)[C@H](CCC(N)=O)NC(=O)[C@H](CCCCN)NC(=O)[C@H](CCCN=C(N)N)NC(=O)[C@H](CC(C)C)NC(=O)[C@H](CCCN=C(N)N)NC(=O)[C@@H](NC(=O)[C@H](Cc1ccc(O)cc1)NC(=O)[C@H](CC(N)=O)NC(=O)[C@@H](CC(=O)O)NC(=O)[C@@H](NC(=O)[C@H](Cc1ccccc1)NC(=O)[C@@H](NC(=O)[C@H](C)NC(=O)[C@H](CC(=O)O)NC(=O)[C@H](CO)NC(=O)[C@@H](N)Cc1cnc[nH]1)C(C)C)[C@@H](C)O)[C@@H](C)O)C(C)C)C(=O)N[C@@H](CC(C)C)C(=O)N[C@@H](CC(N)=O)C(N)=O` [VIP [D-Asp8]], the Ki in assay [1] is 0.11 µM and 0.138 µM and 0.178 µM; in assay [2], 0.275 µM. On to “H-HSDAVFTDNYTRLRAQMAVKKYLNSILN-NH2 [VIP Ala15]”, for which the Ki in assay [1] was 0.0021 µM and 0.0162 µM and 0.0159 µM; in assay [2], 0.0019 µM. On to “H-HSDAVFTANYTRLRKQMAVKKYLNSILN-NH2 [VIP Ala8]”, for which the Ki in assay [1] was 0.00017 µM and 0.0016 µM and 0.0012 µM; in assay [2] it was 0.0012 µM. With `CC[C@H](C)[C@H](NC(=O)[C@H](CO)NC(=O)[C@H](CC(N)=O)NC(=O)[C@@H](CC(C)C)NC(=O)[C@H](Cc1ccc(O)cc1)NC(=O)[C@H](CCCCN)NC(=O)[C@H](CCCCN)NC(=O)[C@@H](NC(=O)[C@H](C)NC(=O)[C@H](CCSC)NC(=O)[C@H](CCC(N)=O)NC(=O)[C@H](CCCCN)NC(=O)[C@H](CCCN=C(N)N)NC(=O)[C@H](CC(C)C)NC(=O)[C@H](CCCN=C(N)N)NC(=O)[C@@H](NC(=O)[C@H](Cc1ccc(O)cc1)NC(=O)[C@H](CC(N)=O)NC(=O)[C@H](CC(=O)O)NC(=O)[C@@H](NC(=O)[C@H](Cc1ccccc1)NC(=O)[C@@H](NC(=O)[C@H](C)NC(=O)[C@H](CC(=O)O)NC(=O)[C@H](CO)NC(=O)[C@@H](N)Cc1cnc[nH]1)C(C)C)[C@@H](C)O)[C@@H](C)O)C(C)C)C(=O)N[C@@H](CC(C)C)C(=O)N[C@@H](CC(N)=O)C(N)=O` [VIP [D-Leu23]], the inhibitory constant (Ki) in assay [1] is 0.0031 µM and 0.0195 µM and 0.0186 µM; in assay [2] it was 0.0416 µM. On to “H-HADAVFTDNYTRLRKQMAVKKYLNSILN-NH2 [VIP Ala2]”, for which the Ki in assay [1] was 0.00043 µM and 0.0036 µM and 0.0027 µM; in assay [2], 0.0026 µM. As for `CC[C@H](C)[C@H](NC(=O)[C@H](CO)NC(=O)[C@H](CC(N)=O)NC(=O)[C@H](CC(C)C)NC(=O)[C@H](Cc1ccc(O)cc1)NC(=O)[C@H](CCCCN)NC(=O)[C@@H](CCCCN)NC(=O)[C@@H](NC(=O)[C@H](C)NC(=O)[C@H](CCSC)NC(=O)[C@H](CCC(N)=O)NC(=O)[C@H](CCCCN)NC(=O)[C@H](CCCN=C(N)N)NC(=O)[C@H](CC(C)C)NC(=O)[C@H](CCCN=C(N)N)NC(=O)[C@@H](NC(=O)[C@H](Cc1ccc(O)cc1)NC(=O)[C@H](CC(N)=O)NC(=O)[C@H](CC(=O)O)NC(=O)[C@@H](NC(=O)[C@H](Cc1ccccc1)NC(=O)[C@@H](NC(=O)[C@H](C)NC(=O)[C@H](CC(=O)O)NC(=O)[C@H](CO)NC(=O)[C@@H](N)Cc1cnc[nH]1)C(C)C)[C@@H](C)O)[C@@H](C)O)C(C)C)C(=O)N[C@@H](CC(C)C)C(=O)N[C@@H](CC(N)=O)C(N)=O` [VIP [D-Lys20]], the Ki is 0.0042 µM and 0.0224 µM and 0.0169 µM in assay [1]; 0.0173 µM in assay [2].

In the case of “H-HSDAVFTDNYTRLRKQMAVKKYLNSILA-NH2 [VIP Ala28]”, the Ki in assay [1] is 0.00054 µM and 0.0027 µM and 0.0028 µM; in assay [2], 0.0043 µM. For the compound `CC[C@H](C)[C@H](NC(=O)[C@H](CO)NC(=O)[C@H](CC(N)=O)NC(=O)[C@H](CC(C)C)NC(=O)[C@H](Cc1ccc(O)cc1)NC(=O)[C@H](CCCCN)NC(=O)[C@H](CCCCN)NC(=O)[C@@H](NC(=O)[C@H](C)NC(=O)[C@H](CCSC)NC(=O)[C@H](CCC(N)=O)NC(=O)[C@H](CCCCN)NC(=O)[C@H](CCCN=C(N)N)NC(=O)[C@H](CC(C)C)NC(=O)[C@H](CCCN=C(N)N)NC(=O)[C@@H](NC(=O)[C@H](Cc1ccc(O)cc1)NC(=O)[C@H](CC(N)=O)NC(=O)[C@H](CC(=O)O)NC(=O)[C@@H](NC(=O)[C@H](Cc1ccccc1)NC(=O)[C@H](NC(=O)[C@H](C)NC(=O)[C@H](CC(=O)O)NC(=O)[C@H](CO)NC(=O)[C@@H](N)Cc1cnc[nH]1)C(C)C)[C@@H](C)O)[C@@H](C)O)C(C)C)C(=O)N[C@@H](CC(C)C)C(=O)N[C@@H](CC(N)=O)C(N)=O` [VIP [D-Val5]], the Ki was 0.0062 µM and 0.0446 µM and 0.0251 µM in assay [1]; 0.0263 µM in assay [2]. Consider `CC[C@H](C)[C@H](NC(=O)[C@H](CO)NC(=O)[C@H](CC(N)=O)NC(=O)[C@H](CC(C)C)NC(=O)[C@H](Cc1ccc(O)cc1)NC(=O)[C@H](CCCCN)NC(=O)[C@H](CCCCN)NC(=O)[C@@H](NC(=O)[C@H](C)NC(=O)[C@H](CCSC)NC(=O)[C@H](CCC(N)=O)NC(=O)[C@@H](CCCCN)NC(=O)[C@H](CCCN=C(N)N)NC(=O)[C@H](CC(C)C)NC(=O)[C@H](CCCN=C(N)N)NC(=O)[C@@H](NC(=O)[C@H](Cc1ccc(O)cc1)NC(=O)[C@H](CC(N)=O)NC(=O)[C@H](CC(=O)O)NC(=O)[C@@H](NC(=O)[C@H](Cc1ccccc1)NC(=O)[C@@H](NC(=O)[C@H](C)NC(=O)[C@H](CC(=O)O)NC(=O)[C@H](CO)NC(=O)[C@@H](N)Cc1cnc[nH]1)C(C)C)[C@@H](C)O)[C@@H](C)O)C(C)C)C(=O)N[C@@H](CC(C)C)C(=O)N[C@@H](CC(N)=O)C(N)=O` [VIP [D-Lys15]], for which the Ki in assay [1] is 0.002 µM and 0.0138 µM and 0.0109 µM; in assay [2], 0.0199 µM. Take “H-HSDAVFTDNATRLRKQMAVKKYLNSILN-NH2 [VIP Ala10]”: the Ki is 0.0617 µM and 0.0562 µM and 0.0447 µM in assay [1]; 0.0549 µM in assay [2]. Regarding `CC[C@H](C)[C@H](NC(=O)[C@H](CO)NC(=O)[C@@H](CC(N)=O)NC(=O)[C@H](CC(C)C)NC(=O)[C@H](Cc1ccc(O)cc1)NC(=O)[C@H](CCCCN)NC(=O)[C@H](CCCCN)NC(=O)[C@@H](NC(=O)[C@H](C)NC(=O)[C@H](CCSC)NC(=O)[C@H](CCC(N)=O)NC(=O)[C@H](CCCCN)NC(=O)[C@H](CCCN=C(N)N)NC(=O)[C@H](CC(C)C)NC(=O)[C@H](CCCN=C(N)N)NC(=O)[C@@H](NC(=O)[C@H](Cc1ccc(O)cc1)NC(=O)[C@H](CC(N)=O)NC(=O)[C@H](CC(=O)O)NC(=O)[C@@H](NC(=O)[C@H](Cc1ccccc1)NC(=O)[C@@H](NC(=O)[C@H](C)NC(=O)[C@H](CC(=O)O)NC(=O)[C@H](CO)NC(=O)[C@@H](N)Cc1cnc[nH]1)C(C)C)[C@@H](C)O)[C@@H](C)O)C(C)C)C(=O)N[C@@H](CC(C)C)C(=O)N[C@@H](CC(N)=O)C(N)=O` [VIP [D-Asn24]], the Ki is 0.0026 µM and 0.0118 µM and 0.0126 µM in assay [1]; 0.0603 µM in assay [2].

For the compound `CC[C@H](C)[C@H](NC(=O)[C@H](CO)NC(=O)[C@H](CC(N)=O)NC(=O)[C@H](CC(C)C)NC(=O)[C@H](Cc1ccc(O)cc1)NC(=O)[C@H](CCCCN)NC(=O)[C@H](CCCCN)NC(=O)[C@@H](NC(=O)[C@H](C)NC(=O)[C@H](CCSC)NC(=O)[C@H](CCC(N)=O)NC(=O)[C@H](CCCCN)NC(=O)[C@H](CCCN=C(N)N)NC(=O)[C@H](CC(C)C)NC(=O)[C@H](CCCN=C(N)N)NC(=O)[C@@H](NC(=O)[C@@H](Cc1ccc(O)cc1)NC(=O)[C@H](CC(N)=O)NC(=O)[C@H](CC(=O)O)NC(=O)[C@@H](NC(=O)[C@H](Cc1ccccc1)NC(=O)[C@@H](NC(=O)[C@H](C)NC(=O)[C@H](CC(=O)O)NC(=O)[C@H](CO)NC(=O)[C@@H](N)Cc1cnc[nH]1)C(C)C)[C@@H](C)O)[C@@H](C)O)C(C)C)C(=O)N[C@@H](CC(C)C)C(=O)N[C@@H](CC(N)=O)C(N)=O` [VIP [D-Tyr10]], the Ki was 0.0037 µM and 0.0323 µM and 0.0245 µM in assay [1]; 0.0234 µM in assay [2]. `CC[C@H](C)[C@H](NC(=O)[C@H](CO)NC(=O)[C@H](CC(N)=O)NC(=O)[C@H](CC(C)C)NC(=O)[C@H](Cc1ccc(O)cc1)NC(=O)[C@H](CCCCN)NC(=O)[C@H](CCCCN)NC(=O)[C@@H](NC(=O)[C@H](C)NC(=O)[C@@H](CCSC)NC(=O)[C@H](CCC(N)=O)NC(=O)[C@H](CCCCN)NC(=O)[C@H](CCCN=C(N)N)NC(=O)[C@H](CC(C)C)NC(=O)[C@H](CCCN=C(N)N)NC(=O)C(NC(=O)[C@H](Cc1ccc(O)cc1)NC(=O)[C@H](CC(N)=O)NC(=O)[C@H](CC(=O)O)NC(=O)C(NC(=O)[C@H](Cc1ccccc1)NC(=O)[C@@H](NC(=O)[C@H](C)NC(=O)[C@H](CC(=O)O)NC(=O)[C@H](CO)NC(=O)[C@@H](N)Cc1cnc[nH]1)C(C)C)[C@@H](C)O)[C@@H](C)O)C(C)C)C(=O)N[C@@H](CC(C)C)C(=O)N[C@@H](CC(N)=O)C(N)=O` (stereo partly drawn) [VIP [D-Met17]]: in assay [1], the Ki is 0.0067 µM and 0.0295 µM and 0.0363 µM.
